From patent US8835644B2, “Broad spectrum benzothiophene-nitrothiazolide and other antimicrobials” (University of Virginia Patent Foundation, priority 2009, dated 2014)
In brackets after ≈: the same amount, converted by molar mass. Read-outs that look alike come from different tables or passages of the source.

Experiments:
H. pylori = assay: MIC testing by broth dilution, H. pylori; assay type: cell-based, Helicobacter pylori
How it was run: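 Helicobacter pylori was tested using a standard broth dilution method in 96 well microplates, each well holding a standard dilution of the organism in 100 microliters of Brain Heart Infusion. Compounds started at 32 μg/ml in 200 microliters in the first well and were serially diluted from 32 to 0.06. Wells were read visually at 24 h, and the MIC was the well with no growth.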

C. jejuni = assay: MIC testing by broth dilution, C. jejuni; assay type: cell-based, Campylobacter jejuni
How it was run: (§1)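 Twofold broth microdilution from 32 μg/ml down to 0.06, in LB for E. coli, Trypticase Soy for S. epidermidis (planktonic) and Brain Heart Infusion for C. jejuni. C. difficile: anaerobic disk diffusion on Wilkins Chalgrin agar, inhibition zone expressed as a ratio to the NTZ zone.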

MRSA = assay: MIC testing by broth dilution, MRSA; assay type: cell-based, Staphylococcus aureus
How it was run: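 Values are broth-dilution MICs, defined as the well showing no growth on visual reading after 24 h; the tested range was 32 to 0.06 μg/ml, in organism-specific media (LB, Trypticase Soy, Brain Heart Infusion). The C. difficile entries come instead from anaerobic Kirby-Bauer disk zones, normalised to NTZ.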

S. epidermidis = assay: MIC testing by broth dilution, S. epidermidis plank; assay type: cell-based, Staphylococcus epidermidis
How it was run: as §1

S. epidermidis biofilm = S. epidermidis biofilm assay (activity tables); assay type: cell-based, Staphylococcus epidermidis
How it was run: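 Overnight TSB cultures diluted to OD600 0.01 and grown static with compound (triplicate) at 37° C for 16 h; turbidity recorded for growth. Biofilm: washed wells ethanol-fixed, stained with 0.5% crystal violet, A570 read before and after 95% ethanol extraction; mean ± SD.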

E. coli = assay: MIC testing by broth dilution, E. coli plank; assay type: cell-based, Escherichia coli
How it was run: as §1

E. coli biofilm = E. coli biofilm assay (activity tables); assay type: cell-based, Escherichia coli
How it was run: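 E. coli strain 042 inoculated 1:100 with NTZ-containing medium and grown statically at 37 °C for 24 h. Growth measured by turbidity or plate counts (cfu/ml); biofilm stained with 0.5% crystal violet and read at 570 nm; triplicate, mean ± SD.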

[1] = tested on: PFOR (pyruvate ferredoxin oxidoreductase); assay: Direct PFOR enzyme assay; assay type: biochemical
Protocol: (§2) Representative compounds of the invention were tested in a series of assays against a series of organisms as described above. […] The organisms tested include, C. difficile, H. pylori, C. jejuni, MRSA, S. epidermidis, and E. coli. S. epidermidis and E. coli were tested in the plank and biofilm assay. A disk diffusion assay was also used for C. difficile. Direct PFOR enzyme assays were also performed. All analogues and derivatives were not tested on every organism in every type of assay (the “-” in each table means that it was not tested).

C. difficile [2] = assay: Disk diffusion (Kirby Bower), C. difficile; assay type: cell-based, Clostridium difficile; settings: for Disk Diff (%) C. difficile: Nitazoxanide = 100, Thiophene analogues table
How it was run: as §1

C. difficile [3] = assay: MIC by agar dilution, C. difficile; assay type: cell-based, Clostridium difficile
Protocol: A standard broth dilution protocol was used in 96 well microplates containing a standard dilution of the microorganism to be tested in 100 microliters of the appropriate medium. Appropriate medium: E. coli, LB medium; Staphylococcus strains, Trypticase Soy; and for H. pylori and C. jejuni, Brain Heart Infusion. The compounds to be tested were set at 32 μg/ml in 200 microliters in well one and then serially diluted to provide a range from 32 to 0.06. The wells were scored visually at 24 h. The well where there was no growth was recorded as the MIC. […]
as §2

[4] = broth dilution, Brain Heart Infusion, 24 h, read-out: MIC (μM) H. pylori
[5] = broth dilution, Brain Heart Infusion, 24 h, read-out: MIC (μM) C. jejuni
[6] = broth dilution, Trypticase Soy, 24 h, read-out: MIC (μM) MRSA
[7] = broth dilution, Trypticase Soy, 24 h, read-out: MIC (μM) S. epidermidis Plank
[8] = broth dilution, LB medium, 24 h, read-out: MIC (μM) E. coli Plank
[9] = biofilm, read-out: MIC (μM) E. coli Biofilm

SMILES: O=C(Nc1ncc([N+](=O)[O-])s1)c1cc(Br)c(Br)o1 [VPC161164]
- MIC (H. pylori; Furan analogues table, read-out: MIC H. pylori): 2.8 µM (≈ 1.11 µg/mL)
- MIC (C. jejuni; Furan analogues table, read-out: MIC C. jejuni): 20.2 µM (≈ 8.02 µg/mL)
- MIC (MRSA; Furan analogues table, read-out: MIC MRSA): 3.8 µM (≈ 1.51 µg/mL)
- MIC (S. epidermidis; planktonic, Furan analogues table, read-out: MIC S. epidermidis Plank): 15.1 µM (≈ 5.99 µg/mL)
- MIC S. epidermidis Biofilm (S. epidermidis biofilm; Furan analogues table): 20.2 µM (≈ 8.02 µg/mL)
- MIC (E. coli; planktonic, Furan analogues table, read-out: MIC E. coli Plank): 60.5 µM (≈ 24 µg/mL)
- MIC (E. coli biofilm; biofilm, Furan analogues table, read-out: MIC E. coli Biofilm): 40.3 µM (≈ 16 µg/mL)
- PFOR inhibition relative to nitazoxanide (=100) ([1]; Furan analogues table): 56%

SMILES: O=C(Nc1ncc([N+](=O)[O-])s1)c1ccc(F)cc1 [VPC161167, 4-Fluoro-N-(5-nitrothiazol-2-yl)benzamide]
- MIC (H. pylori; Helicobacter pylori, 24 h, read-out: MIC (μM) H. pylori): 0.9 µM (≈ 0.241 µg/mL)
- MIC (C. jejuni; Campylobacter jejuni, 24 h, read-out: MIC (μM) C. jejuni): 2.8 µM (≈ 0.748 µg/mL)
- MIC (MRSA; Staphylococcus aureus, MRSA, 24 h, read-out: MIC (μM) MRSA): 8.4 µM (≈ 2.24 µg/mL)
- MIC (S. epidermidis; Staphylococcus epidermidis, 24 h, read-out: MIC (μM) S. epidermidis Plank): 15 µM (≈ 4.01 µg/mL)
- MIC (μM) S. epidermidis Biofilm (S. epidermidis biofilm): 29.9 µM (≈ 7.99 µg/mL)
- MIC (E. coli; Escherichia coli, 24 h, read-out: MIC (μM) E. coli Plank): 120 µM (≈ 32 µg/mL)
- MIC (E. coli biofilm; Escherichia coli, read-out: MIC (μM) E. coli Biofilm): 120 µM (≈ 32 µg/mL)
- Disk Diffusion (%) C. difficile (C. difficile [2]; zone of inhibited growth as relative ratio to the zone for NTZ): 89%
- PFOR inhibition relative to nitazoxanide (=100) [1]: 99%

SMILES: O=C(Nc1ncc([N+](=O)[O-])s1)c1ccc(C(=O)C(F)(F)F)cc1 [VPC161175]
- MIC (C. difficile [3]; agar dilution, anaerobic, Wilkins Chalgrin agar, read-out: MIC (μM) C. difficile): 23.2 µM (≈ 8.01 µg/mL)
- MIC (H. pylori; [4]): 4.3 µM (≈ 1.48 µg/mL)
- MIC (C. jejuni; [5]): 69.5 µM (≈ 24 µg/mL)
- MIC (MRSA; [6]): 92.7 µM (≈ 32 µg/mL)
- MIC (S. epidermidis; [7]): 92.7 µM (≈ 32 µg/mL)
- MIC (μM) S. epidermidis Biofilm (S. epidermidis biofilm): 92.7 µM (≈ 32 µg/mL)
- MIC (E. coli; [8]): 92.7 µM (≈ 32 µg/mL)
- MIC (E. coli biofilm; [9]): 92.7 µM (≈ 32 µg/mL)

SMILES: O=C(Nc1ncc([N+](=O)[O-])s1)c1cc2ccccc2s1 [VPC161180]
- MIC (C. difficile [3]; Thiophene analogues table, read-out: MIC C. difficile): 13.1 µM (≈ 4 µg/mL)
- MIC (H. pylori; Thiophene analogues table, read-out: MIC H. pylori): 2.5 µM (≈ 0.763 µg/mL)
- MIC (C. jejuni; Thiophene analogues table, read-out: MIC C. jejuni): 9.8 µM (≈ 2.99 µg/mL)
- MIC (MRSA; Thiophene analogues table, read-out: MIC MRSA): 6.6 µM (≈ 2.02 µg/mL)
- MIC (S. epidermidis; planktonic, Thiophene analogues table, read-out: MIC S. epidermidis Plank): 13.1 µM (≈ 4 µg/mL)
- MIC S. epidermidis Biofilm (S. epidermidis biofilm; Thiophene analogues table): 19.7 µM (≈ 6.02 µg/mL)
- MIC (E. coli; planktonic, Thiophene analogues table, read-out: MIC E. coli Plank): 104.8 µM (≈ 32 µg/mL)
- MIC (E. coli biofilm; biofilm, Thiophene analogues table, read-out: MIC E. coli Biofilm): 104.8 µM (≈ 32 µg/mL)
- Disk Diff (%) C. difficile (C. difficile [2]): 81%

SMILES: O=C(Nc1ncc([N+](=O)[O-])s1)c1sc2ccccc2c1Cl [VPC161181]
- MIC (C. difficile [3]; Clostridioides difficile, Thiophene analogues table, read-out: MIC C. difficile): 11.8 µM (≈ 4.01 µg/mL)
- MIC (H. pylori; Helicobacter pylori, Thiophene analogues table, read-out: MIC H. pylori): 2.2 µM (≈ 0.748 µg/mL)
- MIC (C. jejuni; Campylobacter jejuni, Thiophene analogues table, read-out: MIC C. jejuni): 5.9 µM (≈ 2 µg/mL)
- MIC (MRSA; Staphylococcus aureus, MRSA, Thiophene analogues table, read-out: MIC MRSA): 2.9 µM (≈ 0.985 µg/mL)
- MIC (S. epidermidis; Staphylococcus epidermidis, planktonic, Thiophene analogues table, read-out: MIC S. epidermidis Plank): 5.9 µM (≈ 2 µg/mL)
- MIC S. epidermidis Biofilm (S. epidermidis biofilm; Thiophene analogues table): 11.8 µM (≈ 4.01 µg/mL)
- MIC (E. coli; Escherichia coli, planktonic, Thiophene analogues table, read-out: MIC E. coli Plank): 94.2 µM (≈ 32 µg/mL)
- MIC (E. coli biofilm; Escherichia coli, biofilm, Thiophene analogues table, read-out: MIC E. coli Biofilm): 94.2 µM (≈ 32 µg/mL)
- Disk Diff (%) C. difficile (C. difficile [2]): 72%

SMILES: O=C(C=Cc1ccccc1)Nc1ncc([N+](=O)[O-])s1 [VPC161200]
- MIC (H. pylori; [4]): 0.3 µM (≈ 0.0826 µg/mL)
- MIC (C. jejuni; [5]): 2.7 µM (≈ 0.743 µg/mL)
- MIC (MRSA; [6]): 116.2 µM (≈ 32 µg/mL)
- MIC (S. epidermidis; [7]): 29.1 µM (≈ 8.01 µg/mL)
- MIC (μM) S. epidermidis Biofilm (S. epidermidis biofilm): 14.5 µM (≈ 3.99 µg/mL)
- MIC (E. coli; [8]): 116.2 µM (≈ 32 µg/mL)
- MIC (E. coli biofilm; [9]): 116.2 µM (≈ 32 µg/mL)
- PFOR inhibition relative to nitazoxanide (=100) [1]: 93%
